Measurements as given in patent publication US5277897A, “In vivo enhancement of cellular accumulation of lipophilic cationic organometallic compounds by reduction of intramembrane potential” (Brigham and Women's Hospital, priority 1992, dated 1994).

What was measured:
[1] = system: cultured chick heart cells; test: Effect of 8-anilino-1-naphthalene sulfonic acid on net uptake of Tc-MIBI in cultured chick heart cells (FIG. 9); format: cell-based; conditions: Gallus gallus, 0.5 h; 8-ANS 10^-4 M, within 30 minutes; read-out: net uptake of Tc-MIBI enhanced over the control
Procedure: FIG. 9. Effect of 8-anilino-1-naphthalene sulfonic acid on net uptake of Tc-M1B1 in cultured chick heart cells. Preparations were incubated for the times indicated in Tc-MIBI loading buffer in the absence (.quadrature.) and presence of 8-ANS ( , 10^-7 M; , 10^-4 M). Each point represents the mean ±SEM of 3-4 determinations.
(§1) Monolayers of spontaneously contractile chick ventricular myocardial cells were obtained from disaggregated 10-day old chick embryo hearts by a slight modification of previously published methods (Horres, C. R., et al., In Pinson, A. (ed.), The Heart Cell in Culture, Boca Raton, CRC Press, pp. 77-108 (1987)). Hearts were trimmed of connective tissue and atria, finely minced and serially exposed to 0.024% (w/v) trypsin in Ca^2+ - and Mg^2+ - free Earle's salt solution for 7 minutes at 37° C. Gentle trituration and agitation on an orbital shaker bath aided disaggregation. Cells released from the first exposure were discarded and cells aspirated from the next four exposures were then added to an equal volume of trypsin deactivating solution consisting of ice-cold culture medium. Cells were centrifuged at 400 g for 10 minutes, resuspended and combined in culture medium, counted with a hemocytometer and diluted to yield a suspension of 5×10^5 cells/ml. […]

[2] = system: cultured heart cells; test: TPB toxicity at high concentration in cultured heart cells; format: cell-based, chick; conditions: TPB 10^-4 M
[3] = Effect of tetraphenylborate on the biodistribution of Tc-MIBI in rats (Table 2); format: in vivo; conditions: TPB vs no TPB
Procedure: The results are expressed as percent injected dose per gram of tissue. […] For this series of experiments, 50 microliters of dimethylsulfoxide lacking or containing 7.2 mM TPB were injected directly into the jugular vein of anesthetized rats immediately prior to the injection of Tc-MIBI (150 microliters; 100 microCuries per 200 microliters).
After 15 minutes, the animal was sacrificed by thoracotomy, organs extracted and placed in test tubes and counted for radioactivity in a standard well-type gamma counter. Tissue wet weights were obtained by subtracting fare weights from total weight of test tubes plus tissue.
Results are expressed as mean ±SEM of three determinations each.

[4] = system: cultured chick heart cells; test: Influence of TPB and CCCP on (membrane potential-independent) accumulation of Tc-MIBI (FIG. 4); format: cell-based; conditions: TPB; CCCP
Procedure: FIG. 4. […] Preparations were incubated for the times indicated in 5.4 mM Ko control loading buffer containing tracer Tc-MIBI and TPB together (Δ) or in loading buffer containing Tc-MIBI alone (.quadrature.). For the latter incubation, TPB was added to the loading buffer at the arrow and cell content of Tc-MIBI subsequently determined (o). Under each condition, CCCP was added to the loading buffers as indicated by the arrows and cell content of Tc-MIBI determined ( , , ·). Each point is the mean ±SEM of 3 determinations.
Monolayers of spontaneously contractile chick ventricular myocardial cells were obtained from disaggregated 10-day old chick embryo hearts by a slight modification of previously published methods (Horres, C. R., et al., In Pinson, A. (ed.), The Heart Cell in Culture, Boca Raton, CRC Press, pp. 77-108 (1987)). Hearts were trimmed of connective tissue and atria, finely minced and serially exposed to 0.024% (w/v) trypsin in Ca^2+ - and Mg^2+ - free Earle's salt solution for 7 minutes at 37° C. Gentle trituration and agitation on an orbital shaker bath aided disaggregation. Cells released from the first exposure were discarded and cells aspirated from the next four exposures were then added to an equal volume of trypsin deactivating solution consisting of ice-cold culture medium. Cells were centrifuged at 400 g for 10 minutes, resuspended and combined in culture medium, counted with a hemocytometer and diluted to yield a suspension of 5×10^5 cells/ml. 12 ml of suspension were incubated in 100 mm plastic culture dishes containing 7 coverslips (25 mm diameter) placed on the bottom of each dish to serve as substrate for cell growth. Cells were maintained in a humidified atmosphere of 5% CO2 /95% air for 3-4 days yielding a confluent layer of spontaneously contractile myocytes on each coverslip.
Radioactive uptake methods have been described in detail (Piwnica-Worms, D., et al, Circ. (in press). Briefly, coverslips with confluent cells were removed from culture media and pre-equilibrated for 40-60 seconds in MEBSS buffer. Uptake and retention experiments were initiated by immersion of coverslips in 60 mm glass Pyrex dishes containing loading solution consisting of buffer with 0.1-0.6 nM [^99m Tc-MIBI] (0.01-0.4 Ci/nmole; 25-100 uCi/ml). Preparations were removed at various times and rinsed three times in 25 ml volumes of ice-cold (2° C.) isotope-free buffer for 8 seconds each to clear extracellular spaces. Preparations and aliquots of the loading buffer and stock solutions were counted in a well-type sodium iodide gamma counter after which cell protein on each coverslip was extracted in 1% sodium dodecylsulfate with 10 mM sodium borate and assayed by the method of Lowry (Lowry, O. H., et al., J. Biol. Chem. 193:265-275 (1951)). Tc-MIBI binding to glass coverslips without cells was used as an estimate of non-specific adhesion to the substrate ([…] obtained with cellular preparations); this value was subtracted from total uptake determinations to derive the cell-associated counts. Use of generator equilibrium equations (Lamson, M. L., et al., i J. Nucl. Med. 16:639-641 (1975)) allowed calculation of absolute moles of Tc-MIBI in solutions and preparations. Results were therefore expressed as fmol cellular Tc-MIBI/mg protein per nM extracellular Tc-MIBI concentration. […]

[5] = system: cultured chick heart cells; test: Concentration-effect curve for TPB enhancement of 2-minute uptake of Tc-MIBI (FIG. 2); format: cell-based
Procedure: FIG. 2. Concentration-effect curve for TPB enhancement of 2-minute uptake of Tc-MIBI. Preparations were pre-incubated for 1 minute in control MEBSS buffer containing TPB at the indicated concentrations prior to determination of tracer Tc-MIBI uptake in the continued presence of TPB. Each point represents the mean ±SEM of 3 determinations.
as §1

[6] = system: cultured chick heart cells; test: Effect of TPB on net accumulation of Tc-MIBI in cultured chick heart cells (FIG. 1); format: cell-based; conditions: TPB 10^-5 M; P <0.001
Procedure: FIG. 1. Effect of TPB on net accumulation of Tc-MIBI in cultured chick heart cells. Preparations were incubated for the times indicated in Modified Earle's Basic Salt Solution (MEBSS) control buffer containing tracer Tc-MIBI alone (.quadrature.) and with various concentrations of tetraphenylborate: ( ) 10^-9 M; ( ) 5×10^-7 M; (·) 10^-5 M. Results are expressed as fmol cellular Tc-MIBI/mg protein per nM extracellular Tc MIBI. Each point represents the mean ±SEM of 3 determinations.
Control buffer was a modified Earle's balanced salt solution (MEBSS) with the following composition (mN) Na^30, 145; K^+, 5.4; Ca^2, 1.2; Mg^2+, 0.8; Cl, 152; H2 PO4, 0.8; SO4^2-, 0.8; dextrose, 5.6; HEPES, 4.0; and bovine calf serum, 1% (v/v); pH 78.4±0.05; 37° C. […]
Monolayers of spontaneously contractile chick ventricular myocardial cells were obtained from disaggregated 10-day old chick embryo hearts by a slight modification of previously published methods (Horres, C. R., et al., In Pinson, A. (ed.), The Heart Cell in Culture, Boca Raton, CRC Press, pp. 77-108 (1987)). […] Cells were centrifuged at 400 g for 10 minutes, resuspended and combined in culture medium, counted with a hemocytometer and diluted to yield a suspension of 5×10^5 cells/ml. […]

[7] = system: perfused rabbit heart; conditions: ouabain 1.5×10^-6 M; cited from earlier work
[8] = system: cells and mitochondria; conditions: cited from earlier work

O=S(=O)(O)c1cccc2cccc(Nc3ccccc3)c12 [8-anilino-1-naphthalene sulfonic acid] gave an activation at 100 µM [1] of 25%.

In the case of c1ccc([B-](c2ccccc2)(c2ccccc2)c2ccccc2)cc1 [TPB, tetraphenylborate], the “enhancement of Tc-MIBI accumulation / cellular toxicity” value [2] is reported as “relatively less enhancement of Tc-MIBI accumulation compared to moderate TPB concentrations suggesting cellular toxicity”, the “Tc-MIBI accumulation in liver, kidney, lung and blood” value [3] is reported as “significant increase in Tc-MIBI accumulation within the tissues” and the “increase in tissue retention of Tc-MIBI, all tissues” value [3] is reported as 50%. The “residual CCCP-insensitive Tc-MIBI content, of the TPB-enhanced Tc-MIBI content” value [4] was 13%, the “myocellular uptake of Tc-MIBI increased in a concentration-dependent manner up to” value [5] was “up to 3×10^-5 M” and the EC50 ([5]; Gallus gallus, 1 minute pre-incubation with TPB, read-out: half-maximal concentration for TPB enhancement of myocellular uptake of Tc-MIBI) was 3 µM. The “peak accumulation of Tc-MIBI, greater than control” value [6] was 4 fold.

For CC1OC(OC2CC(O)C3(CO)C4C(O)CC5(C)C(C6=CC(=O)OC6)CCC5(O)C4CCC3(O)C2)C(O)C(O)C1O (centres unmarked) [oaubain], the “net tissue extraction of Tc-MIBI” value [7] is given as “alter net tissue extraction of Tc-MIBI”.

For COC(=O)c1ccccc1-c1c2ccc(=N)cc-2oc2cc(N)ccc12 [rhodamine 123], the “toxicity to cells and mitochondria” value [8] is given as “shown to be toxic to cells and mitochondria” and the “toxic effects on mitochondrial function” value ([8]; typical loading activities) is given as “toxic effects on mitochondrial function”.
